Each structure is given as a SMILES string.

In one assay the test system is HBsAg. The experiment in a line: HBsAg assay: inhibition of HBsAg in HepG2.2.15 cells (chemiluminescence immunoassay of supernatant). It is filed as cell-based, hepatitis B virus. To be noted: Hepatitis B virus, HepG2.2.15, 144 h, read-out: sAg EC50, HepG2.2.15 cells; HBsAg in supernatant at day 6 after exposure to compound; 0.5% DMSO. Summed up: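 Secreted HBsAg quantified by CLIA in day-6 supernatants of HepG2.2.15 cultures given compound dilutions at 0.5% final DMSO, with one compound/medium replenishment after 2–3 days. Dose-response fits gave EC50 (50% inhibition); viability checked separately by CellTiter-Glo.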
In the case of `COc1cc([C@@H]2C[C@H]2c2cnc(-c3ncccn3)nc2)ccc1OC(F)(F)F` (relative stereo) [Example 152, trans-5-(2-(3-Methoxy-4-(trifluoromethoxy)phenyl)cyclopropyl)-2,2′-bipyrimidine], the EC50 came to 0.7 µM.
In the case of `CCc1cc(F)c(OC)cc1C1CC1c1cnc(-c2ncccn2)nc1` (single isomer, unassigned) [Example 35, trans-5-(2-(2-Ethyl-4-fluoro-5-methoxyphenyl)cyclopropyl)-2,2′-bipyrimidine], the EC50 stood at 0.55 µM.
With `COc1cc(C2CC2c2cnc(-c3ncccn3)c3ccccc23)ccc1F` (single isomer, unassigned) [Example 193, trans-4-(2-(4-Fluoro-3-methoxyphenyl)cyclopropyl)-1-(pyrimidin-2-yl)isoquinoline], the half-maximal effective concentration (EC50) was found to be 43 µM.
On to `c1cnc(-c2ncc([C@@H]3C[C@H]3c3cccc4ncccc34)cn2)nc1` (relative stereo) [Example 171, trans-5-(2-([2,2′-Bipyrimidin]-5-yl)cyclopropyl)quinoline], for which the EC50 worked out at 0.38 µM.
Still for that read-out and setting: under `CCOC(=O)C1C(c2cnc(-c3ncccn3)nc2)C1c1cc(F)c(F)c(OC)c1` (stereo not drawn) [Example 263, trans-Ethyl 2-([2,2′-bipyrimidin]-5-yl)-3-(3,4-difluoro-5-methoxyphenyl)cyclopropane-1-carboxylate] stands 12 µM.
Same read-out and setting: for `Cc1nc2cc([C@@H]3C[C@H]3c3cnc(-c4ncccn4)nc3)ccc2s1` (relative stereo) [Example 278, trans-5-(2-([2,2′-Bipyrimidin]-5-yl)cyclopropyl)-2-methylbenzo[d]thiazole] the value was 0.056 µM; for `O[C@@H]1CN(c2cc(C3CC3c3cnc(-c4ncccn4)nc3)cc(F)c2F)C[C@H]1O` (relative stereo) [Example 239, trans-(3R,4R)-1-(5-(2-([2,2′-Bipyrimidin]-5-yl)cyclopropyl)-2,3-difluorophenyl)pyrrolidine-3,4-diol], 0.11 µM.
Take `COc1cc(C2CN(c3cc([C@@H]4C[C@H]4c4cnc(-c5ncccn5)nc4)cc(F)c3F)C2)cc(F)c1F` (relative stereo) [Example 213, trans-5-(2-(3-(3-(3,4-Difluoro-5-methoxyphenyl)azetidin-1-yl)-4,5-difluorophenyl)cyclopropyl)-2,2′-bipyrimidine]: the concentration for a half-maximal effect (EC50) was 0.073 µM.
On the same count and under the same terms, under `COCCCn1ncc2c([C@@H]3C[C@H]3c3cnc(-c4ncccn4)nc3)cc(F)c(F)c21` (relative stereo) [Example 264, trans-4-(2-([2,2′-Bipyrimidin]-5-yl)cyclopropyl)-6,7-difluoro-1-(3-methoxypropyl)-1H-indazole] stands 0.004 µM; under `COc1cc(C2CC2c2cnc(-c3ncccn3)nc2)c(F)cc1Cl` (single isomer, unassigned) [Example 86, trans-5-(2-(4-Chloro-2-fluoro-5-methoxyphenyl)cyclopropyl)-2,2′-bipyrimidine], 0.13 µM.

Staying with this assay, now noted: read-out: sAg EC50; HepG2.2.15 cells; HBsAg in supernatant at day 6 after exposure to compound; 0.5% DMSO.
As to `CO[C@H]1CCN(c2cc(C3CC3c3cnc(-c4ncccn4)nc3)cc(F)c2F)C1` (single isomer, unassigned) [Example 102], the 50% effective concentration (EC50) was determined as 0.029 µM.
Regarding `COc1cc(C2CC2c2cnc(-c3ncccn3)nc2C)ccc1F` (single isomer, unassigned) [Example 18, trans-5-(2-(4-Fluoro-3-methoxyphenyl)cyclopropyl)-4-methyl-2,2′-bipyrimidine], the concentration for a half-maximal effect (EC50) came to 0.89 µM.
Regarding `COc1cc(C2CC2c2cnc(-c3ncccn3)nc2C(C)C)ccc1F` (single isomer, unassigned) [Example 75, trans-5-(2-(4-Fluoro-3-methoxyphenyl)cyclopropyl)-4-isopropyl-2,2′-bipyrimidine], the concentration for a half-maximal effect (EC50) was determined as 2 µM.
The same measure, in the same setting: for `COc1cc(C2CC2c2cnc(-c3ncccn3)nc2)cc(OC)c1Cl` (single isomer, unassigned) [Example 99, trans-5-(2-(4-Chloro-3,5-dimethoxyphenyl)cyclopropyl)-2,2′-bipyrimidine] the value was 3 µM; for `COc1cc(C2CC2c2cnc(-c3ncccn3)nc2)cnc1OC` (single isomer, unassigned) [Example 184, trans-5-(2-(5,6-Dimethoxypyridin-3-yl)cyclopropyl)-2,2′-bipyrimidine], 1.1 µM.
Still for that read-out and setting: for `O[C@H]1CCN(c2cc(C3CC3c3cnc(-c4ncccn4)nc3)ccc2F)C1` (single isomer, unassigned) [Example 66] the value was 0.23 µM.
With `COc1c(Cl)ccc(C2CC2c2cnc(-c3ncccn3)nc2)c1F` (single isomer, unassigned) [Example 56, trans-5-(2-(4-Chloro-2-fluoro-3-methoxyphenyl)cyclopropyl)-2,2′-bipyrimidine], the 50% effective concentration (EC50) amounted to 0.47 µM.
The same measure, in the same setting: under `COc1cc(C2CC2c2cnc(-c3ncccn3)nc2)cc(C)c1Cl` (single isomer, unassigned) [Example 57, trans-5-(2-(4-Chloro-3-methoxy-5-methylphenyl)cyclopropyl)-2,2′-bipyrimidine] stands 0.063 µM.
Still for that read-out and setting: under `CNC(=O)c1cc(C2CC2c2cnc(-c3ncccn3)nc2)ccc1Cl` (single isomer, unassigned) [Example 202, trans-5-(2-([2,2′-Bipyrimidin]-5-yl)cyclopropyl)-2-chloro-N-methylbenzamide] stands 4 µM.
As for `Fc1cc(C2CC2c2cnc(-c3ncccn3)nc2)cc(O[C@H]2CCOC2)c1F` (single isomer, unassigned) [Example 249], the concentration giving a half-maximal response (EC50) amounted to 0.8 µM.
On the same count and under the same terms, for `O[C@H]1CCN(c2cc(C3CC3c3cnc(-c4ncccn4)nc3)cc(Cl)c2F)C1` (single isomer, unassigned) [Example 121] the value was 0.011 µM.
Still for that read-out and setting: under `COc1cc(C2CC2c2ccc(-c3ncccn3)nn2)ccc1F` (single isomer, unassigned) [Example 192, trans-3-(2-(4-Fluoro-3-methoxyphenyl)cyclopropyl)-6-(pyrimidin-2-yl)pyridazine] stands 49 µM.
Still for that read-out and setting: for `Cc1cn(-c2cc(C3CC3c3cnc(-c4ncccn4)nc3)cc(F)c2F)cn1` (single isomer, unassigned) [Example 261, trans-5-(2-(3,4-Difluoro-5-(4-methyl-1H-imidazol-1-yl)phenyl)cyclopropyl)-2,2′-bipyrimidine] the value was 0.67 µM; for `Fc1cc(C2CC2c2cnc(-c3ncccn3)nc2)cc(O[C@H]2CCOC2)c1F` (single isomer, unassigned) [Example 250], 0.076 µM.
For the compound `Fc1ccc(C2CC2c2cnc(-c3ncccn3)nc2)cc1N1CCC(F)(F)C1` (single isomer, unassigned) [Example 44, trans-5-(2-(3-(3,3-Difluoropyrrolidin-1-yl)-4-fluorophenyl)cyclopropyl)-2,2′-bipyrimidine], the concentration giving a half-maximal response (EC50) stood at 0.11 µM.
In the case of `COc1cc(C2CC2c2cnc(-c3ncccn3)nc2-c2ccc3nc(C)sc3c2)ccc1F` (single isomer, unassigned) [Example 140, trans-6-(5-(2-(4-Fluoro-3-methoxyphenyl)cyclopropyl)-[2,2′-bipyrimidin]-4-yl)-2-methylbenzo[d]thiazole], the EC50 turned out to be 37 µM.
Still for that read-out and setting: under `COc1c(Cl)ccc(C2CC2c2cnc(-c3ncccn3)nc2)c1C` (single isomer, unassigned) [Example 72, trans-5-(2-(4-Chloro-3-methoxy-2-methylphenyl)cyclopropyl)-2,2′-bipyrimidine] stands 0.089 µM; under `Fc1ccc(C2CC2c2cnc(-c3ncccn3)nc2)cc1Cl` (single isomer, unassigned) [Example 29, trans-5-(2-(3-Chloro-4-fluorophenyl)cyclopropyl)-2,2′-bipyrimidine], 0.78 µM.
Still for that read-out and setting: for `Fc1ccc(C2CC2c2cnc(-c3ncccn3)nc2)cc1N1CCC1` (single isomer, unassigned) [Example 83, trans-5-(2-(3-(Azetidin-1-yl)-4-fluorophenyl)cyclopropyl)-2,2′-bipyrimidine] the value was 0.035 µM; for `COc1cc(C2CC2c2cnc(-c3ncccn3)nc2)c(Cl)cc1Cl` (single isomer, unassigned) [Example 88, trans-5-(2-(2,4-Dichloro-5-methoxyphenyl)cyclopropyl)-2,2′-bipyrimidine], 0.084 µM; for `Clc1ccc(C2CC2c2cnc(-c3ncccn3)nc2)cc1N1CCCC1` (single isomer, unassigned) [Example 199, trans-5-(2-(4-Chloro-3-(pyrrolidin-1-yl)phenyl)cyclopropyl)-2,2′-bipyrimidine], 0.14 µM.
As for `CN(C)c1cc(C2CC2c2cnc(-c3ncccn3)nc2)ccc1F` (single isomer, unassigned) [Example 63, trans-5-(2-([2,2′-Bipyrimidin]-5-yl)cyclopropyl)-2-fluoro-N,N-dimethylaniline], the EC50 worked out at 0.39 µM.
For `CO[C@H]1CCN(c2cc(C3CC3c3cnc(-c4ncccn4)nc3)cc(Cl)c2F)C1` (single isomer, unassigned) [Example 116], the half-maximal effective concentration (EC50) came to 0.09 µM.
Same read-out and setting: for `COCCOc1cc(F)c(Cl)cc1C1CC1c1cnc(-c2ncccn2)nc1` (single isomer, unassigned) [Example 157, trans-5-(2-(5-Chloro-4-fluoro-2-(2-methoxyethoxy)phenyl)cyclopropyl)-2,2′-bipyrimidine] the value was 49 µM; for `COc1cnn(-c2cc(C3CC3c3cnc(-c4ncccn4)nc3)cc(F)c2F)c1` (single isomer, unassigned) [Example 251, trans-5-(2-(3,4-Difluoro-5-(4-methoxy-1H-pyrazol-1-yl)phenyl)cyclopropyl)-2,2′-bipyrimidine], 0.041 µM; for `COc1cc(C2CC2c2cnc(-c3ncccn3)nc2C2CCCCC2)ccc1F` (single isomer, unassigned) [Example 79, trans-4-Cyclohexyl-5-(2-(4-fluoro-3-methoxyphenyl)cyclopropyl)-2,2′-bipyrimidine], 0.22 µM.

Values taken from patent US20230083973A1, “SUBSTITUTED CYCLOPROPYL-2,2'-BIP[…], ANALOGUES THEREOF, AND METHODS USING SAME” (priority 2019, published 2023).
